“And” between values parts separate entries of the source, which are not always exact repeats. Equal values may be shown once.
Legend:
Assay type in all cases: functional
[1] = system: Mus musculus; assay: Compound was evaluated for the percent inhibition of PAF-induced Paw edema at the dose 1.0 (mg/kg) (Increases in paw volume is 14 uL)
[2] = system: Mus musculus; assay: Compound was evaluated for the effect on leukocyte adhesion at the dose 0.5(mg/kg); oral administration
[3] = system: Mus musculus; assay: Compound was evaluated for the effect on leukocyte adhesion at the dose 0.2 (mg/kg); oral administration
[4] = system: Mus musculus; assay: Compound was evaluated for the effect on leukocyte adhesion at the dose 0.05 (mg/kg); oral administration
[5] = system: Mus musculus; assay: Compound was evaluated for the effect on leukocyte adhesion at the dose 0.1 (mg/kg); oral administration
[6] = system: Mus musculus; assay: Compound was evaluated for the percent inhibition of PAF-induced Paw edema at the dose 0.5 (mg/kg) (Increases in paw volume is 30 uL)
[7] = system: Mus musculus; assay: Compound was evaluated for the antinociceptive effects at the dose 0.25(mg/kg)
[8] = system: Mus musculus; assay: Compound was evaluated for the antinociceptive effects at the dose 4.0(mg/kg)
[9] = system: Mus musculus; assay: Compound was evaluated for the antinociceptive effects at the dose 2.0(mg/kg)
[10] = system: Mus musculus; assay: Compound was evaluated for the percent inhibition of PAF-induced Paw edema at the dose 0.1 (mg/kg) (Increases in paw volume is 38 uL)
[11] = system: Mus musculus; assay: Compound was evaluated for the percent inhibition of PAF-induced Paw edema at the dose 0.25 (mg/kg) (Increases in paw volume is 24 uL)
[12] = system: Mus musculus; assay: Compound was evaluated for the percent inhibition of PAF-induced Paw edema at the dose 0.5 (mg/kg) (Increases in paw volume is 28 uL)
[13] = system: Mus musculus; assay: Compound was evaluated for the antinociceptive effects at the dose 1.0(mg/kg)
[14] = system: Mus musculus; assay: Compound was evaluated for the antinociceptive effects at the dose 0.5(mg/kg)
[15] = system: Mus musculus; assay: Compound was evaluated for the percent inhibition of PAF-induced Paw edema at the dose 0.25 (mg/kg) (Increases in paw volume is 11 uL)
[16] = system: Mus musculus; assay: Compound was evaluated for the percent inhibition of PAF-induced Paw edema at the dose 0.1 (mg/kg) (Increases in paw volume is 19 uL)
[17] = system: Mus musculus; assay: Compound was evaluated for the percent inhibition of PAF-induced Paw edema at the dose 0.5 (mg/kg) (Increases in paw volume is 7.5 uL)
[18] = system: Mus musculus; assay: Compound was evaluated for the effect on leukocyte adhesion at the dose 40 (mg/kg); oral administration
[19] = system: Mus musculus; assay: Compound was evaluated for the effect on leukocyte adhesion at the dose 20 (mg/kg); oral administration
[20] = system: Mus musculus; assay: Compound was evaluated for the cataleptic effect in the mouse at the dose 5.0(mg/kg)
[21] = system: Mus musculus; assay: Compound was evaluated for the cataleptic effect in the mouse at the dose 0.5 mg/kg
[22] = system: Mus musculus; assay: Compound was evaluated for the effect on leukocyte adhesion at the dose 0.5 (mg/kg); oral administration
[23] = system: Mus musculus; assay: Compound was evaluated for the percent inhibition of PAF-induced Paw edema at the dose 1.0 (mg/kg) (Increases in paw volume is 28 uL)
[24] = system: Mus musculus; assay: Compound was evaluated for the percent inhibition of PAF-induced Paw edema at the dose 0.5 (mg/kg) (Increases in paw volume is 44 uL)
[25] = system: Mus musculus; assay: Compound was evaluated for the effect on leukocyte adhesion at the dose 1.0 (mg/kg); oral administration
[26] = system: Mus musculus; assay: Compound was evaluated for the cataleptic effect in the mouse at the dose 40 mg/kg
[27] = system: Mus musculus; assay: Compound was evaluated for the percent inhibition of arachidonic acid-induced paw edema at the dose 0.5(mg/kg)
[28] = system: Mus musculus; assay: Compound was evaluated for the cataleptic effect in the mouse at the dose 1.0(mg/kg)
[29] = system: Mus musculus; assay: Compound was evaluated for the antinociceptive effects at the dose 0.025(mg/kg)
[30] = system: Mus musculus; assay: Compound was evaluated for the percent inhibition of PAF-induced Paw edema at the dose 0.05 (mg/kg) (Increases in paw volume is -1.2 uL)
[31] = system: Mus musculus; assay: Compound was evaluated for the percent inhibition of arachidonic acid-induced paw edema at the dose 0.1(mg/kg)
[32] = system: Mus musculus; assay: Compound was evaluated for the cataleptic effect in the mouse at the dose 0.1(mg/kg)
[33] = system: Mus musculus; assay: Compound was evaluated for the effect on leukocyte adhesion at the dose 0.01 (mg/kg); oral administration
[34] = system: Mus musculus; assay: Compound was evaluated for the percent inhibition of arachidonic acid-induced paw edema at the dose 0.05(mg/kg)
[35] = system: Mus musculus; assay: Compound was evaluated for the percent inhibition of PAF-induced Paw edema at the dose 0.5 (mg/kg) (Increases in paw volume is -20 uL)
[36] = system: Mus musculus; assay: Compound was evaluated for the percent inhibition of PAF-induced Paw edema at the dose 0.1 (mg/kg) (Increases in paw volume is -10 uL)
[37] = system: Mus musculus; assay: Compound was evaluated for the percent inhibition of PAF-induced Paw edema at the dose 0.25 (mg/kg) (Increases in paw volume is -14 uL)
[38] = system: Mus musculus; assay: Compound was evaluated for the percent inhibition of arachidonic acid-induced paw edema at the dose 0.25(mg/kg)
[39] = system: Mus musculus; assay: Compound was evaluated for the antinociceptive effects at the dose 0.1(mg/kg)
[40] = system: Mus musculus; assay: Compound was evaluated for the antinociceptive effects at the dose 0.05(mg/kg)
[41] = system: Mus musculus; assay: Compound was evaluated for the cataleptic effect in the mouse at the dose 4.0(mg/kg)
[42] = system: Mus musculus; assay: Compound was evaluated for the cataleptic effect in the mouse at the dose 0.25(mg/kg)
[43] = system: Mus musculus; assay: Compound was evaluated for the cataleptic effect in the mouse at the dose 0.5(mg/kg)
[44] = system: Mus musculus; assay: Compound was evaluated for the percent inhibition of PAF-induced Paw edema at the dose 0.05 (mg/kg) (Increases in paw volume is 10 uL)

Structure (SMILES): CCCCCCC(C)(C)c1cc(O)c2c(c1)OC(C)(C)[C@@H]1CC=C(CO)CC21 (some centres undefined)
- Inhibition [1]: 56.3%
- No. of cells [2]: 0.59
- No. of cells [3]: 0.58
- No. of cells [4]: 1.12
- No. of cells [5]: 0.94
- Inhibition [6]: 6.3%

Structure (SMILES): CCCCCCC(C)(C)c1cc(O)c2c(c1)OC(C)(C)C1CC=C(C(=O)OC)C[C@H]21 (some centres undefined)
- Change [7]: 10.4%
- Change [8]: 3.1%
- Change [9]: 37.5%
- Inhibition [10]: -44.2%
- Inhibition [11]: 7.6%
- Inhibition [12]: -7.5%
- Change [13]: 61.4%
- Change [14]: 49%

Structure (SMILES): CCCCCCC(C)(C)c1cc(O)c2c(c1)OC(C)(C)[C@@H]1CC=C(C(=O)OC)CC21 (some centres undefined)
- Inhibition [15]: 63.9%
- Change [9]: 42.9%
- Inhibition [16]: 69.3%
- Change [14]: -2.8%
- Inhibition [17]: 76%

Structure (SMILES): CCCCCc1cc(O)c2c(c1)OC(C)(C)[C@H]1C(C(=O)O)CC(C)=CC21 (some centres undefined)
- No. of cells [18]: 0.55
- No. of cells [19]: 0.67
- No. of cells [20]: 10.1
- No. of cells [21]: 10

Structure (SMILES): CCCCCCC(C)(C)c1cc(O)c2c(c1)OC(C)(C)C1CC=C(CO)C[C@H]21 (some centres undefined)
- No. of cells [22]: 0.64
- Inhibition [23]: 21.8%
- No. of cells [4]: 1.09
- Inhibition [24]: -37.5%
- No. of cells [5]: 0.44
- No. of cells [25]: 0.59

Structure (SMILES): CCCCCc1cc(O)c2c(c1)OC(C)(C)[C@@H]1CCC(C)=C[C@@H]21 [DRONABINOL]
- Cataleptic effect [26]: 48.9

Structure (SMILES): CCCCCCC(C)(C)c1cc(O)c2c(c1)OC(C)(C)[C@@H]1CC=C(C(=O)O)CC21 (some centres undefined)
- Change [7]: 33.4%
- Inhibition [27]: 73.7% and 97.4% and 100%
- Response [28]: 12.2
- No. of cells [22]: 0.87
- Change [29]: 20.8%
- No. of cells [4]: 1.34
- Inhibition [30]: 101%
- Inhibition [31]: 52.6%
- No. of cells [5]: 0.64
- Response [32]: 5.8
- No. of cells [33]: 0.88
- Inhibition [34]: 26.3%
- No. of cells [25]: 0.3
- Inhibition [35]: 171%
- Inhibition [36]: 135%
- Change [13]: 28.4%
- Inhibition [37]: 150%
- Inhibition [38]: 56.4%
- Change [14]: 34%
- Change [39]: 68.3%
- Change [40]: 85%

Structure (SMILES): CCCCCCC(C)(C)c1cc(O)c2c(c1)OC(C)(C)C1CC=C(C(=O)O)C[C@H]21 (some centres undefined)
- Inhibition [15]: 31.9%
- Change [7]: 61.5%
- Inhibition [27]: 47.4%
- Response [28]: 10.4
- No. of cells [22]: 1.46
- Change [29]: 10.3%
- No. of cells [4]: 1.29
- Response [41]: 8.7
- Response [42]: 12.3
- Inhibition [31]: 65.8%
- No. of cells [5]: 1.38
- Inhibition [16]: 38.7%
- Response [43]: 13.8
- No. of cells [33]: 1.34
- Inhibition [44]: 44.4%
- Inhibition [34]: 42.1%
- No. of cells [25]: 0.7
- Change [13]: 14.7%
- Inhibition [38]: 52.6%
- Change [14]: 51.7%
- Change [39]: 49.5%
- Inhibition [17]: 60.1%
- Change [40]: 61.7%
